This test concerns the target Kynurenine/alpha-aminoadipate aminotransferase, mitochondrial (Homo sapiens, UniProt Q8N5Z0). Nature of the test: Inhibitory Assay: To a reaction mixture (45 μL) containing 3.0 μmol/L kynurenine, 10 μmol/L pyridoxal phosphate, 2.0 ng/μL human recombinant KAT-II, and 150 mmol/L tris(hydroxymethyl)aminomethane-acetate buffer (pH 8.0) was added a 10% dimethyl sulfoxide solution (5 μL) of each test compound prepared, and the mixture was reacted at 37° C. for 1 hr. After the reaction, 50% trichloroacetic acid (5 μL) was added to terminate the reaction.The resultant kynurenic acid was quantified as follows by high performance liquid chromatography. An enzyme reaction mixture was separated by an octadecylsilane reversed-phase column (SC-50DS, Eicom Corporation; mobile phase: 250 mmol/L zinc acetate, 50 mmol/L sodium acetate, and 5.0% acetonitrile (pH 6.2)) incubated at 30° C., and kynurenic acid was quantified using a fluorescence detector (RF-20Axs, Shimadzu Corporation) at excitation wavelength 354 nm, detection wavelength 460 nm. The analytical curve was drawn every time by an external standard method. Each test compound was tested by dual measurement at each concentration. The kynurenic acid level in the presence of a test compound at each concentration was converted into % relative to kynurenic acid resulting from a reaction with an enzyme alone as 100%, and the obtained values were fitted to S-curve to determine IC50.

pIC50: −log10 of the molar value.

Sequence of Kynurenine/alpha-aminoadipate aminotransferase, mitochondrial (Q8N5Z0 whole entry): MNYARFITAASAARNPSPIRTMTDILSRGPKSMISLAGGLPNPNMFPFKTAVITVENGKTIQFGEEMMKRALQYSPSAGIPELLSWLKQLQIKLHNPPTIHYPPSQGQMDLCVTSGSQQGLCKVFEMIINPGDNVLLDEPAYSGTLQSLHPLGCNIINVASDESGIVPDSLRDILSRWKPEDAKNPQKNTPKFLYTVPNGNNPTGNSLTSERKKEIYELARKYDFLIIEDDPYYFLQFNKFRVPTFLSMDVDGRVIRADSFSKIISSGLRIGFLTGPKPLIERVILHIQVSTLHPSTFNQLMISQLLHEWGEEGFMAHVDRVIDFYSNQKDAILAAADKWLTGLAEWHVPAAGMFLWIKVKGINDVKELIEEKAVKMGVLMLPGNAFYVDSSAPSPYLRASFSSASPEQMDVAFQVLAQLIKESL

Turning to `CC1(C)CN(c2ncnc3nc(N4CCC[C@@H]4C(=O)NCc4ccccc4)sc23)CCO1`, the pIC50 (as a rule, the IC50 on a negative log10 scale, so that one unit is a factor of ten) is 7.15.

For `COCCc1nc(N(C)C)c2sc(N3CCC[C@@H]3C(=O)NCc3ccccc3)nc2n1`, the negative-log IC50 (pIC50) is 7.19.

Turning to `Cc1nc(N(C)C)c2sc(N3CCC[C@@H]3C(=O)NCc3ccccc3)nc2n1`, the negative-log IC50 (pIC50) is 7.30.

Regarding `CN(C)c1nc(C(F)(F)F)nc2nc(N3CCC[C@@H]3C(=O)NCc3ccccc3)sc12`, the negative-log IC50 (pIC50) is 7.57.

With `COCCOc1ncnc2nc(N3CCC[C@@H]3C(=O)NCc3ccccc3)sc12`, the negative-log IC50 (pIC50) is 6.85.

As for `O=C(NCc1ccccc1)[C@H]1CCCN1c1nc2ncnc(N3CCOCC3)c2s1`, the pIC50 was 7.33.

Regarding `COCc1nc(N(C)C)c2sc(N3CCC[C@@H]3C(=O)NCc3ccccc3)nc2n1`, the pIC50 was 7.09.

As for `CON(C)c1ncnc2nc(N3CCC[C@@H]3C(=O)NCc3ccccc3)sc12`, the negative logarithm of the IC50 (pIC50) was 7.46.

The values above are taken from ChEMBL document CHEMBL5728011, “Bicyclic heterocyclic compound” (2020).
